# Results: ChEMBL document CHEMBL3885881, “DrugMatrix”
# Species: Rattus norvegicus
# Test: DrugMatrix - Regimen: Daily Repeat
# Type: toxicity, organism-based, Sprague-Dawley
# Set-up: regimen Daily Repeat, gender Male, age 6-8 weeks
# Conditions: in vivo, po, route oral GAVAGE, […]; for ABSOLUTE BASOPHIL / ABSOLUTE EOSINOPHIL / ABSOLUTE LYMPHOCYTE / ABSOLUTE MONOCYTE / ABSOLUTE SEGMENTED NEUTROPHIL / BASOPHIL / EOSINOPHIL / ERYTHROCYTE COUNT / HEMATOCRIT / HEMOGLOBIN / LEUKOCYTE COUNT / LYMPHOCYTE / MEAN CORPUSCULAR HEMOGLOBIN / MEAN CORPUSCULAR HEMOGLOBIN CONCENTRATION / MEAN CORPUSCULAR VOLUME / MONOCYTE / NEUTROPHIL / NUCLEATED RED BLOOD CELLS / PLATELET COUNT: tissue Blood; for ALANINE AMINOTRANSFERASE / ALBUMIN / ALKALINE PHOSPHATASE / ASPARTATE AMINOTRANSFERASE / BLOOD UREA NITROGEN / CARBON DIOXIDE / CHLORIDE / CHOLESTEROL / CREATINE PHOSPHOKINASE / CREATININE / GLUCOSE / LACTATE DEHYDROGENASE / LIPASE / PHOSPHORUS / POTASSIUM / SODIUM / TOTAL BILIRUBIN / TOTAL PROTEIN / URIC ACID: tissue Plasma
# [1] = 0 mg/kg, 72 h, dose level Control, time 3 day
# [2] = 0 mg/kg, 120 h, dose level Control, time 5 day
# [3] = 30 mg/kg, 72 h, dose level Low, time 3 day
structure (smiles),measurement,setting,value
CCC(C)n1ncn(-c2ccc(N3CCN(c4ccc(OCC5COC(Cn6cncn6)(c6ccc(Cl)cc6Cl)O5)cc4)CC3)cc2)c1=O (centres undefined) [ITRACONAZOLE],ABSOLUTE BASOPHIL,[1],0 CELLS/uL
same,ABSOLUTE EOSINOPHIL,[1],104.17 CELLS/uL
same,ABSOLUTE LYMPHOCYTE,[1],14547 CELLS/uL
same,ABSOLUTE MONOCYTE,[1],292 CELLS/uL
same,ABSOLUTE SEGMENTED NEUTROPHIL,[1],1640.17 CELLS/uL
same,BASOPHIL,[1],0%
same,EOSINOPHIL,[1],0.67%
same,ERYTHROCYTE COUNT,[1],5.35 x10E6/uL
same,HEMATOCRIT,[1],33.67%
same,HEMOGLOBIN,[1],13.38 G/DL
same,LEUKOCYTE COUNT,[1],16.58 x10E3/uL
same,LYMPHOCYTE,[1],87.5%
same,MEAN CORPUSCULAR HEMOGLOBIN,[1],25.05 pg
same,MEAN CORPUSCULAR HEMOGLOBIN CONCENTRATION,[1],39.78 G/DL
same,MEAN CORPUSCULAR VOLUME,[1],62.97 fL
same,MONOCYTE,[1],1.83%
same,NEUTROPHIL,[1],10%
same,NUCLEATED RED BLOOD CELLS,[1],0 /100WBC
same,PLATELET COUNT,[1],1274.5 x10E3/uL
same,ALANINE AMINOTRANSFERASE,[1],76.83 u/L
same,ALBUMIN,[1],3.97 G/DL
same,ALKALINE PHOSPHATASE,[1],347 u/L
same,ASPARTATE AMINOTRANSFERASE,[1],97.17 u/L
same,BLOOD UREA NITROGEN,[1],14.33 mg/dL
same,CARBON DIOXIDE,[1],25.5 mmol/L
same,CHLORIDE,[1],100.33 MEQ/L
same,CHOLESTEROL,[1],68.67 mg/dL
same,CREATINE PHOSPHOKINASE,[1],659.17 u/L
same,CREATININE,[1],0.32 mg/dL
same,GLUCOSE,[1],160.67 mg/dL
same,LACTATE DEHYDROGENASE,[1],271.5 u/L
same,LIPASE,[1],11.67 u/L
same,PHOSPHORUS,[1],10.65 mg/dL
same,POTASSIUM,[1],5.95 MEQ/L
same,SODIUM,[1],139.65 MEQ/L
same,TOTAL BILIRUBIN,[1],0.2 mg/dL
same,TOTAL PROTEIN,[1],5.72 G/DL
same,URIC ACID,[1],1.37 mg/dL
same,ABSOLUTE BASOPHIL,[2],0 CELLS/uL
same,ABSOLUTE EOSINOPHIL,[2],331.5 CELLS/uL
same,ABSOLUTE LYMPHOCYTE,[2],15021.67 CELLS/uL
same,ABSOLUTE MONOCYTE,[2],376.5 CELLS/uL
same,ABSOLUTE SEGMENTED NEUTROPHIL,[2],3070.33 CELLS/uL
same,BASOPHIL,[2],0%
same,EOSINOPHIL,[2],1.83%
same,ERYTHROCYTE COUNT,[2],5.24 x10E6/uL
same,HEMATOCRIT,[2],33.22%
same,HEMOGLOBIN,[2],13.2 G/DL
same,LEUKOCYTE COUNT,[2],18.8 x10E3/uL
same,LYMPHOCYTE,[2],79.67%
same,MEAN CORPUSCULAR HEMOGLOBIN,[2],25.17 pg
same,MEAN CORPUSCULAR HEMOGLOBIN CONCENTRATION,[2],39.73 G/DL
same,MEAN CORPUSCULAR VOLUME,[2],63.38 fL
same,MONOCYTE,[2],2%
same,NEUTROPHIL,[2],16.5%
same,NUCLEATED RED BLOOD CELLS,[2],0 /100WBC
same,PLATELET COUNT,[2],1142.67 x10E3/uL
same,ALANINE AMINOTRANSFERASE,[2],52.5 u/L
same,ALBUMIN,[2],3.9 G/DL
same,ALKALINE PHOSPHATASE,[2],284.5 u/L
same,ASPARTATE AMINOTRANSFERASE,[2],81.33 u/L
same,BLOOD UREA NITROGEN,[2],16 mg/dL
same,CARBON DIOXIDE,[2],25.33 mmol/L
same,CHLORIDE,[2],99.5 MEQ/L
same,CHOLESTEROL,[2],74.83 mg/dL
same,CREATINE PHOSPHOKINASE,[2],448.33 u/L
same,CREATININE,[2],0.37 mg/dL
same,GLUCOSE,[2],164.17 mg/dL
same,LACTATE DEHYDROGENASE,[2],290.67 u/L
same,LIPASE,[2],6.83 u/L
same,PHOSPHORUS,[2],11.5 mg/dL
same,POTASSIUM,[2],6.28 MEQ/L
same,SODIUM,[2],139.5 MEQ/L
same,TOTAL BILIRUBIN,[2],0.13 mg/dL
same,TOTAL PROTEIN,[2],5.55 G/DL
same,URIC ACID,[2],1.12 mg/dL
same,ABSOLUTE BASOPHIL,[3],0 CELLS/uL
same,ABSOLUTE EOSINOPHIL,[3],60 CELLS/uL
same,ABSOLUTE LYMPHOCYTE,[3],9936.67 CELLS/uL
same,ABSOLUTE MONOCYTE,[3],160.67 CELLS/uL
same,ABSOLUTE SEGMENTED NEUTROPHIL,[3],876 CELLS/uL
same,BASOPHIL,[3],0%
same,EOSINOPHIL,[3],0.67%
same,ERYTHROCYTE COUNT,[3],6.06 x10E6/uL
same,HEMATOCRIT,[3],37.97%
same,HEMOGLOBIN,[3],14.57 G/DL
same,LEUKOCYTE COUNT,[3],11.03 x10E3/uL
same,LYMPHOCYTE,[3],89.67%
same,MEAN CORPUSCULAR HEMOGLOBIN,[3],24 pg
same,MEAN CORPUSCULAR HEMOGLOBIN CONCENTRATION,[3],38.4 G/DL
same,MEAN CORPUSCULAR VOLUME,[3],62.6 fL
same,MONOCYTE,[3],1.33%
same,NEUTROPHIL,[3],8.33%
same,NUCLEATED RED BLOOD CELLS,[3],0 /100WBC
same,PLATELET COUNT,[3],1209.33 x10E3/uL
same,ALANINE AMINOTRANSFERASE,[3],56 u/L
same,ALBUMIN,[3],4.23 G/DL
same,ALKALINE PHOSPHATASE,[3],522.33 u/L
same,ASPARTATE AMINOTRANSFERASE,[3],74.33 u/L
same,BLOOD UREA NITROGEN,[3],11 mg/dL
same,CARBON DIOXIDE,[3],22.67 mmol/L
same,CHLORIDE,[3],100.33 MEQ/L
same,CHOLESTEROL,[3],56 mg/dL
same,CREATINE PHOSPHOKINASE,[3],240 u/L
same,CREATININE,[3],0.11 mg/dL
same,GLUCOSE,[3],184.33 mg/dL
same,LACTATE DEHYDROGENASE,[3],106 u/L
same,LIPASE,[3],10 u/L
same,PHOSPHORUS,[3],12.87 mg/dL
same,POTASSIUM,[3],6.49 MEQ/L
same,SODIUM,[3],141.73 MEQ/L
same,TOTAL BILIRUBIN,[3],0.17 mg/dL
same,TOTAL PROTEIN,[3],6.4 G/DL
same,URIC ACID,[3],1.97 mg/dL
